Reference: PMC4026528 (PLoS ONE, 2014)

System: Myc transcriptional activation in HT-1080 cells
Assay: Nucleolin promoter (pNucL14) luciferase reporter, HT-1080
Format: cell-based, human
Details: HT-1080, pNucL14 ± FLAG-c-Myc
From the text: The generation of TCF-Luciferase and TA-Renilla reporter plasmids as well as IC50 determination and calculation was reported previously. Human AXIN1 and WNT3A cDNAs were purchased from Origene as “transfection ready” plasmids. Dominant negative TCF4 cDNA was purchased from Upstate. Luciferase reporter of the nucleolin promoter (pNucL14) and FLAG-c-Myc expressing vector were from B. Amati. Luciferase reporter of the Hes5 promoter and Notch1-IC expressing vector were from I. Screpanti. Lentiviral vectors for inducible dominant negative TCF4 (rLV-EF1-tTS, rLV-EF1-rtTA and rLV-TRE-CMV-HA-TCF4DN) were purchased from Vectalys.
Transfections were carried out using Lipofectamine 2000 (Invitrogen) according to the manufacturer’s instructions. Lentiviral expression of TCF-Luc, TA-Renilla, and the inducible dominant negative TCF4, were carried out following Vectalys instructions. For reporter assays, luciferase activities were performed as described previously.

COCC(=O)N1CCN(C(=O)C2CCC(Cn3c(=O)c4cc(OC)ccc4n(C)c3=O)CC2)CC1 (stereo not shown) [SEN461]
Myc mediated activation / basal activity of nucleolin reporter: did not affect
